Test results reported in patent publication US10633407B2, “14-membered ketolides and methods of their preparation and use” (President and Fellows of Harvard College, priority 2014, dated 2020).
≈ marks a conversion by molar mass, not a printed value.

How the values were obtained:
Assay in all cases: CLSI broth dilution MIC determination
Type in all cases: cell-based
[1] = system: K. pneumoniae MP-546 Clinical-MDR; conditions: Klebsiella pneumoniae, read-out: MIC
S. aureus MRSA: USA300 = conditions: Staphylococcus aureus; S. aureus MRSA: USA300 (MP-549, msr(a)); read-out: MIC
Description: (§1) MIC data was collected for the novel macrolides that this platform has produced against over 21 unique strains of B. subtilis, E. coli, S. aureus, S. pneumoniae, and H. influenzae, including several multidrug-resistant strains, with a special focus on macrolide resistant mechanisms (vide supra). Azithromycin (Azithro) and Solithromycin (Solithro) were included as a control macrolides in many cases. CLSI standard procedures for broth dilution MIC determination were used. […] These genotypes can be constitutive or inducible.

E. coli MP-541 clinical = conditions: Escherichia coli, MP541CLINICAL, read-out: MIC
Description: as §1

[2] = system: E. coli MP-9 ATCC25922:tolC; conditions: Escherichia coli, ATCC25922
Description: as §1

[3] = system: E. coli MP-532 clinical-cErmB; conditions: Escherichia coli
Description: as §1

E. coli ATCC 25922 = conditions: Escherichia coli, ATCC25922, E. coli ATCC 25922 (MP-4); read-out: MIC
Description: as §1

S. aureus ATCC 29213 = conditions: Staphylococcus aureus, ATCC29213; S. aureus ATCC 29213 (MP-12); read-out: MIC
Description: as §1

[4] = system: S. aureus MP-17 ATCCBAA-977 (BAA 977 iErm); conditions: Staphylococcus aureus; S. aureus MP-17, ATCCBAA-977, iErm; read-out: MIC
Description: as §1

[5] = system: S. aureus (MRSA) MP-513 ST-228 cErm (Clinical-cErm); conditions: Staphylococcus aureus, read-out: MIC
Description: as §1

P. aeruginosa ATCC 27853 = conditions: Pseudomonas aeruginosa, ATCC27853; P. aeruginosa ATCC 27853 (MP-3); read-out: MIC
P. aeruginosa MP-7 PAO1 = conditions: Pseudomonas aeruginosa, read-out: MIC
A. baumannii ATCC 19606 = conditions: Acinetobacter baumannii, ATCC19606; A. baumannii ATCC 19606 (MP-15); read-out: MIC
[6] = system: P. aeruginosa MP-8 PAO1:mex (mex-oprM-deletion); conditions: Pseudomonas aeruginosa, PAO1
[7] = system: A. baumannii MP-577 Clinical-AZT low; conditions: Acinetobacter baumannii, read-out: MIC
[8] = system: K. pneumoniae MP-548 clinical; conditions: Klebsiella pneumoniae, MP548CLINICAL, read-out: MIC
[9] = system: A. baumannii MP-576 Clinical-MDR; conditions: Acinetobacter baumannii, read-out: MIC
K. pneumoniae ATCC 10031 = conditions: Klebsiella pneumoniae, ATCC10031, K. pneumoniae ATCC 10031 (MP-14); read-out: MIC

SMILES	MIC [1]	MIC (S. aureus MRSA: USA300)	MIC (E. coli MP-541 clinical)	MIC [2]	MIC [3]	MIC (E. coli ATCC 25922)	MIC (S. aureus ATCC 29213)	MIC [4]	MIC [5]	MIC (P. aeruginosa ATCC 27853)	MIC (P. aeruginosa MP-7 PAO1)	MIC (A. baumannii ATCC 19606)	MIC [6]	MIC [7]	MIC [8]	MIC [9]	MIC (K. pneumoniae ATCC 10031)
CC[C@H]1OC(=O)[C@@](C)(F)C(=O)[C@H](C)[C@@H](O[C@@H]2OC(C)CC(N(C)C)C2O)[C@](C)(OC)C[C@@H](C)C(=O)[C@H](C)[C@H]2N(CC#CCn3cc(-c4ncccn4)nn3)C(=O)O[C@]12C (stereo partly drawn) [FSM-22741]	> 64 µg/mL	0.25 µg/mL (≈ 0.302 µM)	32 µg/mL (≈ 38.6 µM)	4 µg/mL (≈ 4.83 µM)	> 64 µg/mL	16 µg/mL (≈ 19.3 µM)	0.125 µg/mL (≈ 0.151 µM)	0.125 µg/mL (≈ 0.151 µM)	> 64 µg/mL	> 64 µg/mL	> 64 µg/mL	8 µg/mL (≈ 9.66 µM)	8 µg/mL (≈ 9.66 µM)	32 µg/mL (≈ 38.6 µM)	64 µg/mL (≈ 77.3 µM)	> 64 µg/mL	4 µg/mL (≈ 4.83 µM)
CC[C@H]1OC(=O)[C@@](C)(F)C(=O)[C@H](C)[C@@H](O[C@@H]2OC(C)CC(N(C)C)C2O)[C@](C)(OC)C[C@@H](C)C(=O)[C@H](C)[C@H]2N(CC#CCn3cc(-c4cc(N)nc(N)n4)nn3)C(=O)O[C@]12C (stereo partly drawn) [FSM-22742]	> 64 µg/mL	1 µg/mL (≈ 1.17 µM)	16 µg/mL (≈ 18.6 µM)	2 µg/mL (≈ 2.33 µM)	> 64 µg/mL	16 µg/mL (≈ 18.6 µM)	0.5 µg/mL (≈ 0.583 µM)	1 µg/mL (≈ 1.17 µM)	> 64 µg/mL	64 µg/mL (≈ 74.6 µM)	64 µg/mL (≈ 74.6 µM)	16 µg/mL (≈ 18.6 µM)	8 µg/mL (≈ 9.32 µM)	32 µg/mL (≈ 37.3 µM)	64 µg/mL (≈ 74.6 µM)	> 64 µg/mL	4 µg/mL (≈ 4.66 µM)
CC[C@H]1OC(=O)[C@@](C)(F)C(=O)[C@H](C)[C@@H](O[C@@H]2OC(C)CC(N(C)C)C2O)[C@](C)(OC)C[C@@H](C)C(=O)[C@H](C)[C@H]2N(CC#CCn3cc(-c4cc(N)ncn4)nn3)C(=O)O[C@]12C (stereo partly drawn) [FSM-22745]	> 64 µg/mL	1 µg/mL (≈ 1.19 µM)	32 µg/mL (≈ 38 µM)	4 µg/mL (≈ 4.75 µM)	> 64 µg/mL	32 µg/mL (≈ 38 µM)	0.5 µg/mL (≈ 0.593 µM)	1 µg/mL (≈ 1.19 µM)	> 64 µg/mL	> 64 µg/mL	> 64 µg/mL	32 µg/mL (≈ 38 µM)	16 µg/mL (≈ 19 µM)	64 µg/mL (≈ 75.9 µM)	> 64 µg/mL	> 64 µg/mL	8 µg/mL (≈ 9.49 µM)
CC[C@H]1OC(=O)[C@@](C)(F)C(=O)[C@H](C)[C@@H](O[C@@H]2OC(C)CC(N(C)C)C2O)[C@](C)(OC)C[C@@H](C)C(=O)[C@H](C)[C@H]2N(CC#CCn3cc(-c4cnccn4)nn3)C(=O)O[C@]12C (stereo partly drawn) [FSM-22746]	> 64 µg/mL	0.5 µg/mL (≈ 0.604 µM)	64 µg/mL (≈ 77.3 µM)	4 µg/mL (≈ 4.83 µM)	> 64 µg/mL	32 µg/mL (≈ 38.6 µM)	0.25 µg/mL (≈ 0.302 µM)	0.25 µg/mL (≈ 0.302 µM)	> 64 µg/mL	> 64 µg/mL	> 64 µg/mL	16 µg/mL (≈ 19.3 µM)	16 µg/mL (≈ 19.3 µM)	64 µg/mL (≈ 77.3 µM)	> 64 µg/mL	> 64 µg/mL	8 µg/mL (≈ 9.66 µM)
CC[C@H]1OC(=O)[C@@](C)(F)C(=O)[C@H](C)[C@@H](O[C@@H]2OC(C)CC(N(C)C)C2O)[C@](C)(OC)C[C@@H](C)C(=O)[C@H](C)[C@H]2N(CC#CCn3cc(-c4cncc(N)n4)nn3)C(=O)O[C@]12C (stereo partly drawn) [FSM-22747]	> 64 µg/mL	0.5 µg/mL (≈ 0.593 µM)	32 µg/mL (≈ 38 µM)	4 µg/mL (≈ 4.75 µM)	> 64 µg/mL	32 µg/mL (≈ 38 µM)	0.25 µg/mL (≈ 0.297 µM)	0.25 µg/mL (≈ 0.297 µM)	> 64 µg/mL	> 64 µg/mL	> 64 µg/mL	16 µg/mL (≈ 19 µM)	16 µg/mL (≈ 19 µM)	32 µg/mL (≈ 38 µM)	> 64 µg/mL	> 64 µg/mL	8 µg/mL (≈ 9.49 µM)
CC[C@H]1OC(=O)[C@@](C)(F)C(=O)[C@H](C)[C@@H](O[C@@H]2OC(C)CC(N(C)C)C2O)[C@](C)(OC)C[C@@H](C)C(=O)[C@H](C)[C@H]2N(CC#CCn3cc(-c4ccnc(N)n4)nn3)C(=O)O[C@]12C (stereo partly drawn) [FSM-22748]	> 64 µg/mL	0.25 µg/mL (≈ 0.297 µM)	16 µg/mL (≈ 19 µM)	4 µg/mL (≈ 4.75 µM)	> 64 µg/mL	16 µg/mL (≈ 19 µM)	0.25 µg/mL (≈ 0.297 µM)	0.25 µg/mL (≈ 0.297 µM)	> 64 µg/mL	64 µg/mL (≈ 75.9 µM)	64 µg/mL (≈ 75.9 µM)	16 µg/mL (≈ 19 µM)	16 µg/mL (≈ 19 µM)	32 µg/mL (≈ 38 µM)	64 µg/mL (≈ 75.9 µM)	> 64 µg/mL	8 µg/mL (≈ 9.49 µM)
